Tested on: PAD
Experiment: PAD activity in serum of mice with DSS-induced colitis (BAEE substrate, COLDER citrulline detection)
Format: in vivo
Settings: serum of mice given 2% DSS for 1 week; Cl-amidine treated vs no treatment; p>0.005 as printed; FIG. 2A
Method: A mouse model of colitis was used to develop a method for detecting disease incidence and disease severity by measuring the PAD activity present in serum. In this model, mice were […] or orally administered 2% dextran sulfate sodium (DSS) for 1 week to induce colitis. This model induced moderate to severe colon inflammation, shortening of the colon, and ulcer formation. The efficacy was tested of the PAD inhibitor, Cl-amidine, to determine if PAD activity was diminished in a group of Cl-amidine treated mice versus a group receiving no treatment with the PAD inhibitor. As a control, mice were given water without 2% DSS.
To determine PAD activity levels within the mice, serum samples were collected, then resuspended in Homogenization Buffer (50 mM HEPES pH 7.6, 10% glycerol, 1% NP-40, 1 mM PMSF, and 2 mM DTT) and homogenized using a glass dounce homogenizer. Serum samples were then centrifuged at 10,600 g for 20 min to remove cellular debris. The protein concentration was measured using the Lowry assay. PAD activity was determined by incubating serum samples in a Reaction Buffer (100 mM 4-(2-hydroxyethyl)-1-piperazineethanesulfonic acid (“HEPES”) pH 7.6, 500 mM NaCl, […] (“DTT”), 100 mM CaCl2, and 100 mM N-benzoyl-L-arginine ethyl ester (“BAEE”)) as substrate for the PAD. Incubation was carried out for 2 h at 37° C. in duplicate before freezing in liquid nitrogen. […]

`NC(=O)[C@H](CCCN=C(N)CCl)NC(=O)c1ccccc1` [Cl-amidine] was tested. Which “decrease in PAD activity as compared to the no treatment mice” value did it give?
Its value is “greater than 2.3 fold”.
